Measurements published in patent US8314108B2, “5-(5-(2-(3-aminopropoxy)-6-methoxyphenyl)-1H-pyrazol-3-ylamino)pyrazine-2-carbonitrile, pharmaceutically acceptable salts thereof, or solvate of salts” (Eli Lilly and Company, priority 2008, dated 2012).
pEC50: −log10 of the molar value. Where a name gives a salt, the structure may show the parent alone.

Key:
HT-29 cells = experiment: ECtfs (Two-Fold Sensitization) Assay, 3H-thymidine incorporation; format: cell-based
Protocol: The capacity for continued tumor cell proliferation after DNA damage can be analyzed by determining the ability of cells to replicate their DNA. […] Following a recovery period, cells are assayed for the ability to incorporate radioactive thymidine into DNA during S phase. The ECtfs parameter is a measure of the concentration of a Chk1 inhibitor necessary to reduce by half the GI90 concentration of gemcitabine, measured in this assay in the absence of Chk1 inhibition. […] These cells are plated at 1.3×10^3 per well on Corning Costar 96-well tissue culture plates. After plating the cells, the tissue culture plates are held at room temperature for 45 minutes, before returning to 37° C. Plates are incubated for 24 hours prior to gemcitabine addition. Before gemcitabine addition, medium is removed from all wells and replaced with 150 μL per well of fresh RPMI medium. Gemcitabine stocks at 10 mM are prepared in phosphate-buffered saline. Gemcitabine dilutions were prepared at 4× concentrations in RPMI medium and added to wells at 50 μL per well. The highest final concentration of gemcitabine used is 80 μM and dilutions proceed by four-fold steps. Two hours later, gemcitabine-containing medium is removed from the wells and replaced with 150 μL per well of fresh RPMI medium. […] The volume of addition is 50 μL. Compound dilutions proceed by two-fold steps, starting at 5000 nM. […] 20 μL of this solution is added to each well, yielding 1 μCi/well of ^3H-thymidine. Cells are labeled for twenty-two hours. The medium containing ^3H-thymidine is thoroughly removed from the wells. The plates are then frozen at −20° C., for several hours. To harvest the DNA containing incorporated ^3H-thymidine, plates are thawed for several minutes, and then 120 μL per well of 0.1 N NaOH is added to each well. Each plate is then incubated at 37° C., with slow mixing on a rotator, for 10 minutes. […] The wells of the tissue culture plate on which cells had been labeled are washed with water 5×. The Unifilter plate membranes are washed with an additional 4.5 mL per well (3×1.0 mL and finally a 1.5 mL wash). The Unifilter plates are then dried at 37° C. for at least 6 hours. The bottom of each filter plate was sealed with a Backseal adhesive sheet (PerkinElmer), and the 50 μL/well of MicroScint-20 (Perkin Elmer) is added. Each plate is then sealed with a Topseal clear adhesive sheet (PerkinElmer). Plates are counted on a Topcount scintillation counter (PerkinElmer), at 1 minute per well. ^3H-thymidine counts per minute (cpm) are exported into Prism (GraphPad) for analysis and plotting. […] For plotting the data in Prism, the gemcitabine concentrations are transformed to log values, and dose-response curves are fit by non-linear regression. Neither top nor bottom fits are constrained.

Calu-6 lung xenograft = experiment: Single Agent Efficacy Dosing, Calu-6 lung xenograft; format: in vivo, nude mice; conditions: 15 mg/kg subcutaneously, BID×5 rest 2 days, ×3 cycles
Protocol: The ability of Chk1 inhibitors to effect tumor killing can be determined in vivo using the Calu-6 lung xenograft efficacy model. Calu-6 lung cancer cells (ATCC) are cultured as described above. Cells are harvested and washed twice with phosphate buffered saline and 1×10^6 cells (Calu-6) in growth media (without serum) are mixed with equal volume of BD Matrigel™ matrix (BD Bioscience, Franklin, N.J.), then injected subcutaneously into the flank of nude mice (CD-1 nu/nu, from Charles River Labs, Wilmington, Mass.).

[1] = test system: Calu-6 lung tumor xenograft; experiment: Human Tumor Xenograft Model, Calu-6 lung; format: in vivo, nude mice; conditions: Calu-6 xenograft
Protocol: (§1) The ability of Chk1 inhibitors to effect tumor killing can be determined in vivo using the Calu-6 lung and HT-29 colon tumor xenograft efficacy models. Calu-6 lung cancer cells (ATCC) are cultured in growth media (MEM w/Earle's salts (Invitrogen) with L-glutamine (Gibco™) supplemented with 10% (v/v) heat inactivated FBS (Gibco™), 1×MEM non-essential amino acids (Gibco™), 1× sodium pyruvate (Gibco™)) and HT-29 colon cancer cells (ATCC) are cultured in growth media, (McCoy's 5A medium (Gibco™) supplemented with 10% FBS (Gibco™)) and expanded. Cells are harvested and washed twice with phosphate buffered saline and 5×10^6 cells (HT-29) or 1×10^6 cells (Calu-6) in growth media (without serum) are mixed with equal volume of BD Matrigel™ matrix (BD Bioscience, Franklin, N.J.), then injected subcutaneously into the flank of nude mice (CD-1 nu/nu, from Charles River Labs, Wilmington, Mass.). At about day 16 after implant (150-200 mm^3), gemcitabine is formulated fresh in saline daily and administered to animals by intraperitoneal route at 60 mg/kg dose. […] Tumor response is determined by tumor volume measurement performed twice a week during the course of treatment. Tumor growth inhibition (TGI) is calculated as the percent reduction in mean tumor size of a compound treated group from the mean tumor size of the vehicle-treated control group.

[2] = test system: HT-29 colon tumor xenograft; experiment: Human Tumor Xenograft Model, HT-29 colon; format: in vivo, nude mice; conditions: HT-29 xenograft
Protocol: as §1

[3] = test system: Thirty solid tumor cell lines; experiment: Monolayer Proliferation and Cytotoxicity Assay (modified propidium iodide assay, Oncotest); format: cell-based; conditions: 96 h; majority of thirty solid tumor cell lines, 4 days of treatment; read-out: EC50 (growth inhibition of tumor cell lines)
Excerpt: One measure of potency of a Chk1 inhibitor is its ability to inhibit the proliferation of cancer cells in culture due to uncontrolled replication origin activation. (Conti et al. Cell Cycle 6: 2760-2767, 2007) Determination of Chk1 inhibitor antiproliferative activity in cell lines derived from a broad range of tumor types is indicative of which tumor types may be clinically responsive to chemotherapy with Chk1 inhibitors. The following described cellular proliferation assay is run at Oncotest, GmbH in Germany. Thirty solid tumor cell lines are derived from 13 different tumor histotypes, each represented by 1 to 6 different cell lines (Oncotest, GmbH). […] Briefly, adherent cells are harvested from exponential phase cultures by trypsinization, counted and plated in 96 well flat-bottomed microtiter plates at a cell density depending on the cell line (4.000-20.000 cells/well). […] Finally, PI fluorescence is measured using the Cytofluor 4000 microplate reader (excitation λ=530 nm, emission λ=620 nm) to determine the total viable cell number. Growth inhibition is expressed as Test/Control×100 (% T/C) values. Based on the T/C values, relative IC50 values are determined using non-linear regression (log [conc. of inhibitor] versus response (% T/C)).

[4] = stated jointly for both HT-29 and Calu-6 models

COc1cccc(OCCCN)c1-c1cc(Nc2cnc(C#N)cn2)n[nH]1 [Example 2, 5-(5-(2-(3-Aminopropoxy)-6-methoxyphenyl)-1H-pyrazol-3-ylamino)pyrazine-2-carbonitrile dihydrogen chloride salt]
decrease of the EC50 of gemcitabine (HT-29 cells; 3 nM of the compound of Example 2, HT29 colon carcinoma cells): 7 fold | ECtfs value (HT-29 cells; concentration of Chk1 inhibitor necessary to reduce by half the GI90 concentration of gemcitabine, HT-29 cells): 0.3 nM | growth inhibition compared with the gemcitabine plus compound combination schedule (Calu-6 lung xenograft): superior growth inhibition | tumor regression (Calu-6 lung xenograft): Complete tumor regression is rapid and durable | anti-tumor activity ([1]; dosed alone and in combination with gemcitabine 60 mg/kg, intravenous, Q3Dx4): excellent dose dependent anti-tumor activity | increase in tumor growth inhibition over gemcitabine alone [1, 4]: six-fold | anti-tumor activity ([2]; dosed alone and in combination with gemcitabine 60 mg/kg, intraperitoneal, Q3Dx4): excellent dose dependent anti-tumor activity | increase in tumor growth inhibition over gemcitabine alone [2, 4]: six-fold | pEC50 [3]: > 7.70

Nc1ccn([C@@H]2O[C@H](CO)[C@@H](O)C2(F)F)c(=O)n1 [gemcitabine, reference compound]
pEC50 (HT-29 cells; Homo sapiens, HT-29, gemcitabine alone, HT29 colon carcinoma cells): 7.43 | percentage of proliferation inhibition (HT-29 cells; gemcitabine alone, HT29 cells): 52%
